# Results taken from PubChem BioAssay (NCI).
#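 These data come from cells grown in 96-well plates and exposed to compound for 48 hours at five concentrations. TGI: total growth inhibition.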
# What was measured:
# Assay in all cases: NCI anticancer screen, dose series, 48 h
# MDA-N = test system: MDA-N
# EKVX NSCLC = test system: EKVX NSCLC
# OVCAR-3 ovarian = test system: OVCAR-3 ovarian
# MALME-3M melanoma = test system: MALME-3M melanoma
# DU-145 prostate = test system: DU-145 prostate
# NCI-H522 lung = test system: NCI-H522 lung
# 786-0 renal = test system: 786-0 renal
# HS 578T breast = test system: HS 578T breast
# MOLT-4 leukemia = test system: MOLT-4 leukemia
# SR leukemia = test system: SR leukemia
# HT29 colon = test system: HT29 colon
# U251 CNS = test system: U251 CNS
# NCI-H226 lung = test system: NCI-H226 lung
# NCI-H460 lung = test system: NCI-H460 lung
# SNB-75 CNS = test system: SNB-75 CNS
# RXF 393 renal = test system: RXF 393 renal
# SF-539 CNS = test system: SF-539 CNS
# SK-OV-3 ovarian = test system: SK-OV-3 ovarian
# LOX IMVI melanoma = test system: LOX IMVI melanoma
# SNB-19 CNS = test system: SNB-19 CNS
# PC-3 prostate = test system: PC-3 prostate
# HL-60(TB) leukemia = test system: HL-60(TB) leukemia
# NCI-H23 lung = test system: NCI-H23 lung
# SW-620 colon = test system: SW-620 colon
# T-47D breast = test system: T-47D breast
# CAKI-1 renal = test system: CAKI-1 renal
# K-562 leukemia = test system: K-562 leukemia
# UACC-62 melanoma = test system: UACC-62 melanoma
# TK-10 renal = test system: TK-10 renal
# HOP-62 NSCLC = test system: HOP-62 NSCLC
# BT-549 breast = test system: BT-549 breast
# MCF7 breast = test system: MCF7 breast
# A549 NSCLC = test system: A549 NSCLC
# MDA-MB-231 breast = test system: MDA-MB-231 breast
# MDA-MB-435 = test system: MDA-MB-435
# NCI/ADR-RES ovarian = test system: NCI/ADR-RES ovarian
# UACC-257 melanoma = test system: UACC-257 melanoma
# SK-MEL-28 melanoma = test system: SK-MEL-28 melanoma
# RPMI-8226 leukemia = test system: RPMI-8226 leukemia
# OVCAR-8 ovarian = test system: OVCAR-8 ovarian
# HCC-2998 colon = test system: HCC-2998 colon
# IGROV1 ovarian = test system: IGROV1 ovarian
# ACHN renal = test system: ACHN renal
# HOP-92 NSCLC = test system: HOP-92 NSCLC
# UO-31 renal = test system: UO-31 renal
# HCT-116 colon = test system: HCT-116 colon
# SF-268 CNS = test system: SF-268 CNS
# SN12C renal = test system: SN12C renal
# SK-MEL-2 melanoma = test system: SK-MEL-2 melanoma
# OVCAR-4 ovarian = test system: OVCAR-4 ovarian
# OVCAR-5 ovarian = test system: OVCAR-5 ovarian
# KM12 colon = test system: KM12 colon
# CCRF-CEM leukemia = test system: CCRF-CEM leukemia
# SF-295 CNS = test system: SF-295 CNS
# M14 melanoma = test system: M14 melanoma
# HCT-15 colon = test system: HCT-15 colon
# SK-MEL-5 melanoma = test system: SK-MEL-5 melanoma
# COLO 205 colon = test system: COLO 205 colon
# A498 renal = test system: A498 renal
compound,measurement,setting,value
CC1=C(C)CC2C(=O)N(c3cc(C(C)(C)C)ccc3C(C)(C)C)C(=O)C2C1 (stereo not drawn),TGI,MDA-N,> 100 µM
same,TGI,EKVX NSCLC,> 100 µM
same,TGI,OVCAR-3 ovarian,> 100 µM
same,TGI,MALME-3M melanoma,16.4 µM
same,TGI,DU-145 prostate,> 100 µM
same,TGI,NCI-H522 lung,23.9 µM
same,TGI,786-0 renal,> 100 µM
same,TGI,HS 578T breast,56.8 µM
same,TGI,MOLT-4 leukemia,> 100 µM
same,TGI,SR leukemia,> 100 µM
same,TGI,HT29 colon,> 100 µM
same,TGI,U251 CNS,> 100 µM
same,TGI,NCI-H226 lung,> 100 µM
same,TGI,NCI-H460 lung,> 100 µM
same,TGI,SNB-75 CNS,56.2 µM
same,TGI,RXF 393 renal,74.9 µM
same,TGI,SF-539 CNS,> 100 µM
same,TGI,SK-OV-3 ovarian,> 100 µM
same,TGI,LOX IMVI melanoma,> 100 µM
same,TGI,SNB-19 CNS,> 100 µM
same,TGI,PC-3 prostate,> 100 µM
same,TGI,HL-60(TB) leukemia,> 100 µM
same,TGI,NCI-H23 lung,> 100 µM
same,TGI,SW-620 colon,> 100 µM
same,TGI,T-47D breast,> 100 µM
same,TGI,CAKI-1 renal,> 100 µM
same,TGI,K-562 leukemia,> 100 µM
same,TGI,UACC-62 melanoma,31.8 µM
same,TGI,TK-10 renal,> 100 µM
same,TGI,HOP-62 NSCLC,82.3 µM
same,TGI,BT-549 breast,> 100 µM
same,TGI,MCF7 breast,17.2 µM
same,TGI,A549 NSCLC,> 100 µM
same,TGI,MDA-MB-231 breast,> 100 µM
same,TGI,MDA-MB-435,> 100 µM
same,TGI,NCI/ADR-RES ovarian,> 100 µM
same,TGI,UACC-257 melanoma,> 100 µM
same,TGI,SK-MEL-28 melanoma,> 100 µM
same,TGI,RPMI-8226 leukemia,> 100 µM
same,TGI,OVCAR-8 ovarian,> 100 µM
same,TGI,HCC-2998 colon,> 100 µM
same,TGI,IGROV1 ovarian,> 100 µM
same,TGI,ACHN renal,23.2 µM
same,TGI,HOP-92 NSCLC,> 100 µM
same,TGI,UO-31 renal,> 100 µM
same,TGI,HCT-116 colon,> 100 µM
same,TGI,SF-268 CNS,24.6 µM
same,TGI,SN12C renal,> 100 µM
same,TGI,SK-MEL-2 melanoma,> 100 µM
same,TGI,OVCAR-4 ovarian,> 100 µM
same,TGI,OVCAR-5 ovarian,> 100 µM
same,TGI,KM12 colon,> 100 µM
same,TGI,CCRF-CEM leukemia,> 100 µM
same,TGI,SF-295 CNS,> 100 µM
same,TGI,M14 melanoma,> 100 µM
same,TGI,HCT-15 colon,> 100 µM
same,TGI,SK-MEL-5 melanoma,> 100 µM
same,TGI,COLO 205 colon,> 100 µM
CO/N=C(\C)c1ccc(Nc2nc3ccccc3c3occc23)cc1,TGI,MDA-N,28.7 µM
same,TGI,EKVX NSCLC,27.5 µM
same,TGI,OVCAR-3 ovarian,96.1 µM
same,TGI,MALME-3M melanoma,28.3 µM
same,TGI,DU-145 prostate,29.7 µM
same,TGI,NCI-H522 lung,24 µM
same,TGI,786-0 renal,27.2 µM
same,TGI,HS 578T breast,30.7 µM
same,TGI,MOLT-4 leukemia,53.1 µM
same,TGI,SR leukemia,58.6 µM
same,TGI,HT29 colon,14.5 µM
same,TGI,U251 CNS,35.6 µM
same,TGI,NCI-H226 lung,24 µM
same,TGI,NCI-H460 lung,34.1 µM
same,TGI,SF-539 CNS,27.5 µM
same,TGI,SK-OV-3 ovarian,29.5 µM
same,TGI,LOX IMVI melanoma,32.1 µM
same,TGI,SNB-19 CNS,31.2 µM
same,TGI,PC-3 prostate,30.3 µM
same,TGI,HL-60(TB) leukemia,50.4 µM
same,TGI,NCI-H23 lung,28.9 µM
same,TGI,T-47D breast,28.9 µM
same,TGI,CAKI-1 renal,32 µM
same,TGI,K-562 leukemia,50.7 µM
same,TGI,UACC-62 melanoma,24.7 µM
same,TGI,TK-10 renal,25.4 µM
same,TGI,HOP-62 NSCLC,29.5 µM
same,TGI,BT-549 breast,31 µM
same,TGI,MCF7 breast,31 µM
same,TGI,A549 NSCLC,39 µM
same,TGI,MDA-MB-231 breast,25.9 µM
same,TGI,MDA-MB-435,31.1 µM
same,TGI,NCI/ADR-RES ovarian,32.1 µM
same,TGI,UACC-257 melanoma,31.4 µM
same,TGI,RPMI-8226 leukemia,43.4 µM
same,TGI,OVCAR-8 ovarian,33.9 µM
same,TGI,HCC-2998 colon,30.4 µM
same,TGI,IGROV1 ovarian,31.7 µM
same,TGI,ACHN renal,27.6 µM
same,TGI,HOP-92 NSCLC,27.6 µM
same,TGI,UO-31 renal,35.9 µM
same,TGI,HCT-116 colon,27.9 µM
same,TGI,SF-268 CNS,32.5 µM
same,TGI,SN12C renal,28.9 µM
same,TGI,SK-MEL-2 melanoma,33.4 µM
same,TGI,OVCAR-5 ovarian,31.5 µM
same,TGI,KM12 colon,36.4 µM
same,TGI,A498 renal,29.7 µM
same,TGI,CCRF-CEM leukemia,42.2 µM
same,TGI,SF-295 CNS,31.5 µM
same,TGI,M14 melanoma,30.2 µM
same,TGI,HCT-15 colon,30.5 µM
same,TGI,SK-MEL-5 melanoma,29.8 µM
same,TGI,COLO 205 colon,28.1 µM
Cc1ccc(S(=O)(=O)Nc2ccccc2C=O)cc1,TGI,MDA-N,42.9 µM
same,TGI,EKVX NSCLC,61.1 µM
same,TGI,OVCAR-3 ovarian,60.1 µM
same,TGI,MALME-3M melanoma,46.1 µM
same,TGI,DU-145 prostate,> 100 µM
same,TGI,NCI-H522 lung,82.1 µM
same,TGI,786-0 renal,35.9 µM
same,TGI,HS 578T breast,59.6 µM
same,TGI,MOLT-4 leukemia,34.5 µM
same,TGI,SR leukemia,86.3 µM
same,TGI,HT29 colon,49.3 µM
same,TGI,U251 CNS,30.2 µM
same,TGI,NCI-H226 lung,41.5 µM
same,TGI,NCI-H460 lung,47 µM
same,TGI,SNB-75 CNS,57.7 µM
same,TGI,RXF 393 renal,> 100 µM
same,TGI,SF-539 CNS,5.08 µM
same,TGI,SK-OV-3 ovarian,94.8 µM
same,TGI,LOX IMVI melanoma,27.5 µM
same,TGI,SNB-19 CNS,75 µM
same,TGI,PC-3 prostate,35.6 µM
same,TGI,HL-60(TB) leukemia,27.6 µM
same,TGI,NCI-H23 lung,66.8 µM
same,TGI,SW-620 colon,47.5 µM
same,TGI,T-47D breast,72.7 µM
same,TGI,CAKI-1 renal,> 100 µM
same,TGI,K-562 leukemia,60.8 µM
same,TGI,UACC-62 melanoma,27 µM
same,TGI,TK-10 renal,52.4 µM
same,TGI,HOP-62 NSCLC,85 µM
same,TGI,BT-549 breast,58.8 µM
same,TGI,MCF7 breast,35.2 µM
same,TGI,A549 NSCLC,> 100 µM
same,TGI,MDA-MB-231 breast,41 µM
same,TGI,MDA-MB-435,34.9 µM
same,TGI,NCI/ADR-RES ovarian,59 µM
same,TGI,UACC-257 melanoma,45.7 µM
same,TGI,SK-MEL-28 melanoma,64.7 µM
same,TGI,RPMI-8226 leukemia,36 µM
same,TGI,OVCAR-8 ovarian,34.1 µM
same,TGI,IGROV1 ovarian,38.3 µM
same,TGI,ACHN renal,46.7 µM
same,TGI,HOP-92 NSCLC,13.1 µM
same,TGI,UO-31 renal,26.8 µM
same,TGI,HCT-116 colon,28 µM
same,TGI,SN12C renal,45 µM
same,TGI,SK-MEL-2 melanoma,30.4 µM
same,TGI,OVCAR-4 ovarian,> 100 µM
same,TGI,OVCAR-5 ovarian,67 µM
same,TGI,KM12 colon,33.5 µM
same,TGI,A498 renal,92.2 µM
same,TGI,SF-295 CNS,85.6 µM
same,TGI,M14 melanoma,54.7 µM
same,TGI,HCT-15 colon,31.6 µM
same,TGI,SK-MEL-5 melanoma,25.1 µM
same,TGI,COLO 205 colon,33.2 µM
